Read-outs that look alike come from different tables or passages of the source. No end group written: not given here.
What was measured:
PP1 and PP2A = conditions: refs [17], [19]; cited from earlier work
PP1GL = assay: Phosphorylase phosphatase activity of PP1GL (hepatic glycogen particles); assay type: biochemical, rat
Method: Hepatic glycogen particles were diluted in assay buffer to 0.6 phosphorylase phosphatase (PhP) mU per ml, incubated for 15 minutes at 30° C. with GM-(G63-T93) (closed circles), GM-(G63-K80) (open circles) or GM-(G63-N75) (closed triangles) and assayed as described in Example 1. The open triangles show the effect of GM-(G63-N75) which had been phosphorylated at Ser67 by PKA (pGM-(G63-N75)). Similar results were obtained in four experiments.
(A) Hepatic glycogen protein particles containing PP1-GL were diluted and incubated for 15 min at 30° C. with the indicated concentrations of either M110[M1-F38] (open circles) or M110[M1-K35] (closed circles) and the phosphatase reactions were initiated by addition of ^32P-labelled glycogen phosphorylase. The results are expressed as a percentage of the activity determined in control incubations where the M110 peptides were omitted. Similar results were obtained in three separate experiments. (B) The experiment was carried out as in (A), except that the peptide GM[G63-N75] (“wild type”, WT) and variants in which either Val 66 (V66A) (closed triangles) or Phe 68 (F68A) (closed circles) were changed to Ala, were used instead of the M110 peptides. Similar results were obtained in three separate experiments.
(§1) The myosin-associated form of PP1 (PP1M) was from chicken gizzard and the glycogen-associated form of PP1 (PP1G) from rabbit skeletal muscle. The β isoform of PP1c was released from PP1G by incubation for 2 hours in 2M LiBr, then purified by gel-filtration on a 30×1 cm column of Superose 12 (Pharmacia, Milton Keynes, U.K.) in the presence of 0.5M LiBr. Glycogen protein particles from rat liver were used as the source of hepatic PP1G Digoxygenin-labelled PP1c (γ1-isoform, hereafter termed PP1) was prepared as in [9]. GL was expressed in E. coli as a glutathione-S-transferase (GST) fusion protein [7], termed GST-GL. The catalytic subunit of PP2A from bovine heart (PP2AC) was provided by Dr R. MacKintosh in this Unit. The phosphorylatable myosin light chain (MLC20) and heavy meromyosin from chicken gizzard were a gift from Dr M. Ikebe (Case Western Reserve University, Cleveland, USA). Thrombin and benzamidine-Agarose were purchased from Sigma (Poole, UK).
(§2) ^32P-labelled rabbit skeletal muscle phosphorylase a (containing 1.0 mol phosphate per mol subunit) was prepared by phosphorylation with phosphorylase kinase, ^32P-labelled rabbit skeletal muscle glycogen synthase (containing 1.5 mol/mol subunit in the sites 3 region) was prepared by phosphorylation with glycogen synthase kinase-3 [24]). ^32P-labelled chicken gizzard MLC20 and ^32P-labelled chicken gizzard heavy meromyosin (containing 1.0 mol phosphate per mol subunit) were prepared by phosphorylation with smooth muscle myosin light chain kinase. The dephosphorylation of phosphorylase a (10 μM), glycogen synthase (1 μM) and MLC20 (1 μM) and heavy meromyosin (1 μM) was carried out as in [24]. One unit of activity (U) was that amount which released […] of phosphate in one minute.
(§3) PP1c was isolated from the rabbit skeletal muscle PP1-GM complex as described previously (Johnson et al, 1996). Glycogen particles isolated from rat liver (Schelling el al, 1988) served as the source of PP1-GL. The dephosphorylation of glycogen phosphorylase (10 μM) and the isolated MLC20 of smooth muscle myosin (1 μM) by PP1c was carried out as described previously (Cohen et al., 1988; Alessi et al., 1992).

PP1c [1] = molecular target: T1, PP1c (Oryctolagus cuniculus, UniProt P62143); assay: Phosphorylase phosphatase activity of PP1c; assay type: biochemical, rabbit
T1 construct: from tissue; host or cells: rabbit skeletal muscle (PP1G dissociated with LiBr)
Method: (§4) A,B; Effects of M110-(M1-E309) (closed circles), M110-(M1-F38) (open circles) and M110-(D39-E309) (open triangles) on the MLC20 phosphatase […] and phosphorylase phosphatase (B) activities of PP1c were measured after incubating PP1c for 15 minutes at 30° C. with each fragment. The results are presented as a percentage of those obtained in experiments where the M110 fragments were omitted.
(§5) C,D; The effect of M110-(M1-A150) (open circles) and M110-(L24-Y496) (closed circles) on the MLC20 phosphatase (C) and phosphorylase phosphatase (D) activities of PP1c were measured as in A,B.
(B) The phosphorylase phosphatase activity of PP1c was assayed as in A in the presence or absence of 1 μM GM-(G63-T93) and 1.0 nM M110-(M1-E309). The results are presented (SEM for three experiments) as a percentage of the PP1c activity measured in the absence of GM-(63-T93), M110-(M1-F38) or M110-(M1-E309).
as §1, §2, §3

PP1c [2] = molecular target: T1, PP1c; assay: MLC20 (myosin P-light chain) phosphatase activity of PP1c; assay type: biochemical
Method: as §4, §5
(A) The MLC20 phosphatase activity of PP1c was assayed after incubation for 15 minutes at 30° C. in the presence or absence of 1 μM GM-(G63-T93) and either 0.1 μM M110-(M1-F38) or 0.1 nM M110-(M1-E309).
(1-38, open circles) or M110[M1-K35] (1-35, closed circles) were incubated with PP1c for 15 min at 30° C. and reactions started with the ^32P-labelled MLC20 substrate. The results are expressed as a % of the activity determined in control incubations where the M110 peptides were omitted (100%). Similar results were obtained in three separate experiments.
as §1, §2, §3
^32P-labelled myosin P-light chains containing 1.0 mol phosphate per mol subunit was prepared by phosphorylation with smooth muscle myosin light chain kinase. The dephosphorylation of myosin P-light chain (1 μM) was carried out as in [4] and one unit of activity (U) was that amount which catalysed the release of 1 μmole of phosphate in one min. When assaying PP1M in immunoprecipitates from the myofibrillar extracts, the tubes were shaken continuously and 3 nM okadaic acid was included to inhibit any PP2A present.

PP1c (γ1-isoform) = PP1c (γ1-isoform) (Homo sapiens, UniProt P36873); assay: Far Western: GST-GM fusion proteins probed with digoxygenin-labelled PP1γ; assay type: binding; conditions: GST-fusion proteins on blot probed with digoxygenin-labelled PP1γ
Source text: GST-GM fusion proteins were electrophoresed on 10% SDS/polyacrylamide gels and stained with Coomassie blue (lanes 1-3) or, after transfer to nitrocellulose, probed with digoxygenin-labelled PP1γ (lanes 4-6) as in [9]. Lanes 1 and 4, GST-GM-(E2-D118); Lanes 2 and 5, GST-GM-(H100-P350); Lanes 3 and 6, GST. The positions of the marker proteins glycogen phosphorylase (97 kDa), bovine serum albumin (66 kDa), ovalbumin (43 kDa), carbonic anhydrase (29 kDa) and soybean trypsin inhibitor (20 kDa) are indicated.
as §1, with “Thrombin and benzamidine-Agarose were purchased from Sigma (Poole, UK).” left out

PP1c [3] = molecular target: T1, PP1c; assay: Glycogen synthase phosphatase activity of PP1c; assay type: biochemical, rabbit
Method: The glycogen synthase phosphatase activity of PP1c was measured after a 15 minute incubation at 30° C. with the indicated concentrations of M110-(M1-F38) and M110-(M1-E309). Similar results were obtained in three different experiments.
as §2

PP1c [4] = molecular target: T1, PP1c; assay: Dephosphorylation of heavy meromyosin by PP1c; assay type: biochemical, rabbit; conditions: data not shown
Method: as §2

T1 sequence (P62143 whole entry): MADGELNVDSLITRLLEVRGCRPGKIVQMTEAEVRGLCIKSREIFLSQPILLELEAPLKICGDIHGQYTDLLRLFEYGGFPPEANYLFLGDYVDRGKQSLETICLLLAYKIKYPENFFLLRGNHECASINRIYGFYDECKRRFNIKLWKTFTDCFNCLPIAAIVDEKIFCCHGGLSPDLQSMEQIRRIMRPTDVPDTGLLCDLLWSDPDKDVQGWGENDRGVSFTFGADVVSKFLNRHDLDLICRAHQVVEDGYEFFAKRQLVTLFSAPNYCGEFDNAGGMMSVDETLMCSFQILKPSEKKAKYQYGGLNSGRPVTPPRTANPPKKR
Sequence of PP1c (γ1-isoform) (P36873 whole entry, the tested form may be a part, canonical isoform): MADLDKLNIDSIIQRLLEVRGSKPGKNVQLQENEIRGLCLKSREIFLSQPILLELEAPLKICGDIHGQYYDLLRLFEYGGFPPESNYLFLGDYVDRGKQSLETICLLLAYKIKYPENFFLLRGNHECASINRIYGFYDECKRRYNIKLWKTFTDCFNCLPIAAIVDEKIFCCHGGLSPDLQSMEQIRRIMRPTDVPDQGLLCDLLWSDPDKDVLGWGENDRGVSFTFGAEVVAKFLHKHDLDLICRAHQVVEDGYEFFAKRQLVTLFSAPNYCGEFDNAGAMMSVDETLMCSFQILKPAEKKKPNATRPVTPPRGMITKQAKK

Compound: C=C1[C@@H](O)[C@@H]2O[C@]3(CC[C@H](/C=C/[C@@H](C)[C@@H]4CC(C)=C[C@@]5(O[C@H](C[C@@](C)(O)C(=O)O)CC[C@H]5O)O4)O3)CC[C@H]2O[C@@H]1[C@@H](O)C[C@H](C)[C@H]1O[C@@]2(CCCCO2)CC[C@H]1C [okadaic acid]
- relative potency as inhibitor of PP1 and PP2A (PP1 and PP2A): a much more potent inhibitor of PP2A than PP1

Compound: CO[C@H]([C@H](O)CC(=O)[C@@H](C)[C@@H](O)CC[C@@H](C)[C@@H]1O[C@]2(CC[C@@H](C)[C@H](CC[C@H](C)C(C)=O)O2)CC[C@@H]1C)[C@H](OC(=O)C[C@@H](O)C1=C(C)C(=O)OC1=O)C(C)C [tautomycin]
- relative potency as inhibitor of PP1 and PP2A (PP1 and PP2A): a much more potent inhibitor of PP1 than PP2A

Compound: GM-(E81-T93): peptide generated by cleaving GM-(G63-T93) with Lys-C endoproteinase (DCWELPSASTTFD; UniProt Q16821 81-93, looked up, fragment)
- effect on the phosphorylase phosphatase activity of PP1GL (PP1GL; at concentrations up to 10 μM): no effect
- effect on the phosphorylase phosphatase activity of PP1c (PP1c [1]; at concentrations up to 10 μM): no effect

Compound: GM-(G63-N75): synthetic 13 residue peptide, residues 63-75 of GM (GRRVSFADNFGFN)
- effect on the phosphorylase phosphatase activity of PP1GL (PP1GL; hepatic glycogen particles containing PP1-GL): increased the phosphorylase phosphatase activity of PP1GL, but were less effective than GM-(G63-T93)
- effect on the phosphorylase phosphatase activity of PP1c (PP1c [1]; at concentrations up to 10 μM): did not increase the phosphorylase phosphatase activity of PP1c significantly

Compound: GST: glutathione-S-transferase [reference compound]
- effect on the MLC20 phosphatase activity of PP1c (PP1c [2]): no effect
- effect on the phosphorylase phosphatase activity of PP1c (PP1c [1]): no effect
- interaction with PP1 in Far Western experiments (PP1c (γ1-isoform)): did not interact with PP1c

Compound: MKMADAKQKRNEQLKRWIGSETDLEPPVVKRQKTKVKF [M110-(M1-F38)]
- effect on the dephosphorylation of glycogen synthase by PP1c (PP1c [3]): greatly enhanced
- displacement of GL from PP1c (PP1GL): capable of displacing GL from PP1GL
- increase in the phosphorylase phosphatase activity of PP1GL (PP1GL; 10 μM peptide): 3.5 fold
- EC50 (PP1c [2]): 10 nM
- concentration needed to modulate the specificity of PP1c compared to thrombin-cleaved M110-(M1-E309) (PP1c [2]): at least 100 fold higher
- effect on the MLC20 phosphatase activity of PP1c (PP1c [2]): stimulate the MLC20 phosphatase activity of PP1c to the same extent as M110-(M1-E309)
- increase in PP1c activity towards MLC20 (maximal activation) (PP1c [2]): 3 fold
- peptide concentration at maximal activation of the myosin light chain phosphatase activity of PP1c (PP1c [2]): 1 µM
- effect on the phosphorylase phosphatase activity of PP1c (PP1c [1]): did not inhibit the phosphorylase phosphatase activity of PP1c
- effect on the phosphorylase phosphatase activity of PP1c (PP1c [1]; each peptide individually, at concentrations up to 1 μM): no effect
- effect on the dephosphorylation of heavy meromyosin by PP1c (PP1c [4]): stimulated the dephosphorylation of heavy meromyosin in a similar manner to the dephosphorylation of MLC20
